A short description of data set [1]: Lipophilicity, log D of the compound at pH 7.4. Format: physicochemical. Particulars: buffer.
For another data set, the target named is Translocator protein (Rattus norvegicus, UniProt P16257). The data set can be described thus: Displacement of [3H]PK11195 from TSPO in Wistar rat heart incubated for 15 mins. In general terms: Loss of bound radioactivity is the signal in a displacement assay; it reports binding, not function.
Data set [2] deals with Rattus norvegicus. In words: Biodistribution in naive Wistar rat whole brain at 1 to 3 MBq, iv using [18F] labeled compound measured 2 mins post dose. As to conditions: in vivo. Format: ADME, organism-based.
In data set [3] the test system is Rattus norvegicus. In words: Biodistribution in naive Wistar rat olfactory bulbs at 1 to 3 MBq, iv using [18F] labeled compound measured 30 mins post dose. Particulars: in vivo, 0.5 h. Format: ADME, organism-based, Olfactory bulb.
Data set [4] deals with Striatum. The data set can be described thus: Ratio of biodistribution in olfactory bulbs to striatum of in naive Wistar rat at 1 to 3 MBq, iv using [18F] labeled compound measured 30 mins post dose. It counts as ADME, organism-based. As to conditions: in vivo, 0.5 h.
For data set [5], the system named is Striatum. In words: Ratio of biodistribution in striatum at 2 mins post dose to biodistribution in striatum post 30 mins in naive Wistar rat at 1 to 3 MBq, iv using [18F] labeled compound. Particulars: in vivo. It counts as ADME, organism-based.
A further data set concerns Brain. The data set can be described thus: Stability in naive Wistar rat brain assessed as parent compound level at 1 to 3 MBq, iv using [18F] labeled compound measured 60 mins post dose. It counts as ADME, organism-based. Particulars: in vivo, 1 h.
Data set [6] in a line: Lipophilicity, log P of the compound by HPLC method. It counts as physicochemical.

SMILES strings stand for the structures.

Sequence of Translocator protein (P16257 whole entry, looked up): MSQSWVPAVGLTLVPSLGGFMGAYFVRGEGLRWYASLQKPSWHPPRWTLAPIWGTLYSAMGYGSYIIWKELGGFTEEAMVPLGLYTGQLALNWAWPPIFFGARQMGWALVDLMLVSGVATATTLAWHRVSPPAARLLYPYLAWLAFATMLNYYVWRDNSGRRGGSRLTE

As a reminder, the logD is lipophilicity at a set pH, counting ionised and neutral species. For orientation: Ki means a measure of affinity in units of concentration, obtained from inhibition or displacement. As for `COc1ccc(OCCF)c(CN(C(C)=O)c2cccnc2Oc2ccccc2)c1`, the logD in data set [1] (read-out: logD) amounted to 1.58. The molecule also came in with an inhibitory constant (Ki) on Translocator protein of 7.28 nM. The results for the Drug uptake in the data set with Rattus norvegicus [2] and with Rattus norvegicus [3] were 0.25 % ID/g and 0.26 % ID/g, respectively. For the same molecule, the results for the Ratio in the data set on Striatum [4] and in the data set with Striatum [5] were 5.2 and 4.4, respectively.

For `Cc1ccc(CN(C(=O)CF)c2ccccc2Oc2ccccc2)o1`, in data set [1] (read-out: logD), the pH-dependent lipophilicity (logD) turned out to be 2.19. For the same molecule, the affinity on Translocator protein, expressed as Ki, was 72.1 nM.

Consider `CC(=O)N(Cc1cccn(CCF)c1=O)c1ccccc1Oc1ccccc1`, for which the logD in data set [1] (read-out: logD) turned out to be 2.2. At Translocator protein, this molecule displayed an inhibitory constant (Ki) of 105 nM.

For the molecule `O=C(CF)N(Cc1cccc2c1OCO2)c1ccccc1Oc1ccccc1`, in data set [1] (read-out: logD), the pH-dependent lipophilicity (logD) came out at 2.8. At Translocator protein, this molecule returned an inhibition constant (Ki) of 2.03 nM. For the same molecule, the Drug uptake in the data set with Rattus norvegicus [2] came to 0.65 % ID/g; in the data set on Rattus norvegicus [3], 0.37 % ID/g. In addition, the Ratio came out at 2.85 in the data set on Striatum [4] and 4.77 in the data set on Striatum [5]. In the data set on Brain, the Stability is 92%.

For `CCC(C)N(C)C(=O)c1cc2ccccc2c(-c2ccccc2Cl)n1` (centres undefined) [PK-11195], the log distribution coefficient (logD) in data set [1] (read-out: logD) worked out at 3.73.

Turning to `COc1ccc(OC)c(CN(C(=O)CF)c2ccccc2Sc2ccccc2)c1`, at Translocator protein, the Ki came out at 4.48 nM. The Drug uptake in the data set with Rattus norvegicus [2] came to 0.61 % ID/g; with Rattus norvegicus [3] it was 0.17 % ID/g. In addition, the Ratio in the data set with Striatum [4] was determined as 1.88; with Striatum [5] it was 6.22.

Turning to `COc1ccc(OC)c(CN(C(=O)C[18F])c2ccccc2Oc2ccccc2)c1`, the Drug uptake in the data set on Rattus norvegicus [2] is on record as 0.74 % ID/g. In addition, the Stability with Brain was found to be 91%.

For `COc1ccc(OC)c(CN(C(=O)CF)c2ccccc2OC(C)C)c1`, the logD in data set [1] (read-out: logD) came out at 2.62. At Translocator protein, this molecule came in with a Ki of 3.8 nM.

One may read the logP as a log measure of how a compound divides between an organic and an aqueous phase. Higher therefore signals a more lipophilic compound. `COc1ccccc1CN(C(=O)CF)c1cnccc1Oc1ccccc1` had a Ki at Translocator protein of 2.18 nM. Further, the logP in data set [6] came to 2.72. For the same molecule, the Stability with Brain was 52%.

With `O=C(CF)N(Cc1cccs1)c1ccccc1Oc1ccccc1`, the logD in data set [1] (read-out: logD) came to 1.98. In addition, affinity at Translocator protein was put at a Ki of 163 nM.

Regarding `COc1ccccc1CN(C(=O)CF)c1cccnc1Oc1ccccc1`, in data set [1] (read-out: logD), the logD was determined as 1.51. Further, the Ki on Translocator protein was 125 nM. In addition, the values for the Drug uptake in the data set with Rattus norvegicus [2] and with Rattus norvegicus [3] were 0.55 % ID/g and 0.15 % ID/g, respectively. The Ratio was 1.36 in the data set with Striatum [4] and 4.82 in the data set with Striatum [5].

`COc1ccc(OC)c(CN(C(=O)CF)c2ccccc2Oc2ccccc2)c1` showed a pH-dependent lipophilicity (logD) in data set [1] of 2.36.

Turning to `COc1ccc(OC)c(CN(C(C)=O)c2cc(F)ccc2Oc2ccccc2)c1`, the Ki on Translocator protein was 0.43 nM.

`COc1ccc(OC)c(CN(C(=O)CF)c2cc(F)ccc2OC(C)C)c1`: the affinity at Translocator protein corresponds to a Ki of 9.84 nM.

With `COc1ccc(OC)c(CN(C(=O)CF)c2ccccc2OC2CCCC2)c1`, in data set [1] (read-out: logD), the logD was determined as 3.8. Further, the affinity at Translocator protein, expressed as Ki, was 0.46 nM. Moreover, the figures for the Drug uptake in the data set with Rattus norvegicus [2] and in the data set with Rattus norvegicus [3] were 0.53 % ID/g and 0.23 % ID/g, respectively. Moreover, the Ratio is 2.56 with Striatum [4] and 5.56 in the data set with Striatum [5]. The Stability in the data set with Brain amounted to 45%.

On to `COc1ccc(OC)c(CN(C(=O)CF)c2cc(F)ccc2Oc2ccccc2)c1`, for which, in data set [1] (read-out: logD), the logD worked out at 2.06. Besides, the Ki at Translocator protein is 0.05 nM. The Drug uptake was 0.73 % ID/g with Rattus norvegicus [2] and 0.7 % ID/g in the data set with Rattus norvegicus [3]. In addition, the Ratio with Striatum [4] was 2.06; in the data set with Striatum [5], 1.71.

Consider `CC(=O)N(Cc1ccccc1OCCF)c1cccnc1Oc1ccccc1`, for which the logD in data set [1] (read-out: logD) is 1.69. Besides, the results for the Drug uptake in the data set with Rattus norvegicus [2] and in the data set on Rattus norvegicus [3] were 0.45 % ID/g and 0.4 % ID/g, respectively. For the same molecule, the Ratio in the data set on Striatum [4] is 3.08; with Striatum [5], 2.85.

For `CC(=O)N(Cc1cccnc1OCCF)c1ccccc1Oc1ccccc1`, in data set [1] (read-out: logD), the logD was determined as 2.6.

Take `CCC(C)N([11CH3])C(=O)c1cc2ccccc2c(-c2ccccc2Cl)n1` (centres undefined): the Drug uptake in the data set on Rattus norvegicus [2] is reported as 0.28 % ID/g.

As for `COc1ccccc1CN(C(=O)CF)c1ccccc1OC1CCCC1`, in data set [1] (read-out: logD), the logD came out at 2.35. Further, the Ki at Translocator protein worked out at 6.65 nM. In addition, the Drug uptake is recorded as 0.77 % ID/g with Rattus norvegicus [2] and 0.42 % ID/g in the data set on Rattus norvegicus [3]. Further, the Ratio in the data set on Striatum [4] worked out at 3.23; in the data set on Striatum [5], 5.46. Besides, the Stability with Brain was 62%.

The molecule `COc1ccc(OC)c(CN(C(=O)CF)c2ccccc2S(=O)(=O)c2ccccc2)c1` came in with a Ki at Translocator protein of 3430 nM.

For `COc1ncccc1CN(C(=O)CF)c1cc(F)ccc1Oc1ccccc1`, in data set [1] (read-out: logD), the pH-dependent lipophilicity (logD) was 2.3. The molecule also returned a Ki at Translocator protein of 3.52 nM. Further, the figures for the Drug uptake in the data set on Rattus norvegicus [2] and in the data set on Rattus norvegicus [3] were 0.84 % ID/g and 0.5 % ID/g, respectively. Moreover, the Ratio with Striatum [4] is 2.78; with Striatum [5], 4.39. In addition, the Stability in the data set with Brain stood at 72%.

The molecule `COc1ccc(OC)c(CN(C(=O)CF)c2cncnc2Oc2ccccc2)c1` registered an inhibitory constant (Ki) at Translocator protein of 63 nM. Besides, in data set [6], the logP was 2.79.

`O=C(CF)N(Cc1cccc2c1OCCO2)c1ccccc1Oc1ccccc1`: in data set [1] (read-out: logD), the logD is 1.96. This molecule returned an inhibition constant Ki on Translocator protein of 1.14 nM. The Drug uptake worked out at 0.72 % ID/g in the data set on Rattus norvegicus [2] and 0.4 % ID/g in the data set on Rattus norvegicus [3]. In addition, the Ratio with Striatum [4] stood at 2.5; with Striatum [5], 3.88. Besides, the Stability in the data set with Brain came to 82%.

On to `COc1ncccc1CN(C(=O)CF)c1ccccc1Oc1ccccc1`, for which the logD in data set [1] (read-out: logD) was 2.38. In addition, the Drug uptake is recorded as 0.66 % ID/g with Rattus norvegicus [2] and 0.33 % ID/g in the data set with Rattus norvegicus [3]. Also, the Ratio came to 2.54 in the data set with Striatum [4] and 3.92 in the data set on Striatum [5].

For `CC1(C)Cc2cccc(CN(C(=O)CF)c3ccccc3Oc3ccccc3)c2O1`, the log distribution coefficient (logD) in data set [1] (read-out: logD) turned out to be 2.6. Besides, the Ki on Translocator protein stood at 2.66 nM. Also, the Drug uptake in the data set with Rattus norvegicus [2] was found to be 0.58 % ID/g; with Rattus norvegicus [3], 0.23 % ID/g. The Ratio in the data set on Striatum [4] was found to be 1.53; with Striatum [5] it was 3.8.

`COc1ccc(OC)c(CN(C(=O)CF)c2cccc3cc(C)oc23)c1` yielded a Ki at Translocator protein of 6.38 nM. For the same molecule, the Drug uptake with Rattus norvegicus [2] worked out at 0.68 % ID/g; with Rattus norvegicus [3], 0.35 % ID/g. Besides, the Ratio in the data set on Striatum [4] was determined as 3.5; with Striatum [5], 6.3. The Stability with Brain came out at 80%.

In the case of `O=C(CF)N(Cc1cccc2c1OCC2)c1ccccc1Oc1ccccc1`, the log distribution coefficient (logD) in data set [1] (read-out: logD) is 2.68. In addition, the Ki on Translocator protein came out at 0.31 nM. Besides, the Drug uptake in the data set on Rattus norvegicus [2] was 0.81 % ID/g; in the data set on Rattus norvegicus [3], 0.68 % ID/g. The Ratio in the data set on Striatum [4] and in the data set on Striatum [5] was 2.52 each time. Also, in the data set on Brain, the Stability was found to be 91%.

Source of the values: ChEMBL document CHEMBL2069301, “Exploration of the structure-activity relationship of the diaryl anilide class of ligands for translocator protein--potential novel positron emitting tomography imaging agents” (Bioorg Med Chem Lett, 2012).
